From US20170152258A9, “Substituted Pyridopyrazines as Syk Inhibitors” (HUTCHISON MEDIPHARMA LIMITED, priority 2012, published 2017)

How the values were obtained:
[1] = target: Syk kinase (Homo sapiens, UniProt P43405); assay: SYK Enzymatic Assay (Z-LYTE Tyr 2 peptide); assay type: biochemical; conditions: 8 concentrations 1 μM down to 0.0003 μM
Procedure, shortened: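 Z-LYTE format using Tyr 2 peptide. After the 1 h room-temperature kinase reaction, development reagent was added for 1 h, then stop reagent. Fluorescence was read at 445 and 520 nm. Compounds were tested at 8 concentrations, 1 μM down to 0.0003 μM (1:3 dilutions).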

[2] = tested on: RBL-2H3 cells; assay: IgE-induced Beta-hexosaminidase secretion in RBL-2H3 cells; assay type: cell-based; conditions: DNP-BSA stimulation
Procedure, shortened: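 RBL-2H3 cells sensitized overnight with 0.5 ug/ml SPE-7 IgE, washed, preincubated with compound 20 min at 37° C, then stimulated with DNP-BSA (150 ng/mL stock) for 45 min. Released β-hexosaminidase measured on supernatant with 1 mM 4-nitrophenyl N-acetyl-β-D-glucosaminide, pH 4.5, 1.5 hr at 37° C; absorbance 405 nm after carbonate quench.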

[3] = Rattus norvegicus, RBL-2H3, IgE-induced Beta-hexosaminidase secretion
[4] = IgE-induced Beta-hexosaminidase secretion

Question: Which results are given for `CC(C)(C)c1ccc(-c2cc3nccnc3c(OC[C@@H]3CN(S(C)(=O)=O)CCO3)n2)cc1` [Compound 256]?
Answer: IC50 [1]: 36 nM; IC50 [2, 3]: 92 nM

Question: Which results are given for `CC(C)(C)c1ccc(-c2cc3nccnc3c(OC[C@@H]3CN(S(N)(=O)=O)CCO3)n2)cc1` [Compound 257]?
Answer: IC50 [1]: 63 nM; IC50 [2, 3]: 160 nM

Question: Which results are given for `CS(=O)(=O)N1CCO[C@H](COc2nc(-c3ccc(CN4CCOCC4)cc3)cc3nccnc23)C1` [Compound 258]?
Answer: IC50 [1]: 81 nM; IC50 [2, 3]: 187 nM

Question: Which results are given for `CC(=O)N(C)Cc1ccc(-c2cc3nccnc3c(OC[C@@H]3CN(S(C)(=O)=O)CCO3)n2)cc1` [Compound 259]?
Answer: IC50 [1]: 54 nM; IC50 [2, 3]: 297 nM

Question: How did the IC50 [1] turn out when `NS(=O)(=O)N1CCO[C@H](COc2nc(-c3ccc(C4CCOCC4)cc3)cc3nccnc23)C1` [Compound 260] was run?
Answer: 24 nM

Question: What about the IC50 [2, 3] of the same compound?
Answer: 135 nM

Question: How did the IC50 [1] turn out when `CS(=O)(=O)N1CCC(c2ccc(-c3cc4nccnc4c(OC[C@@H]4CNC(=O)C4)n3)cc2)CC1` [Compound 261, (S)-4-(((7-(4-(1-(methylsulfonyl)piperidin-4-yl)phenyl)pyrido[3,4-b]pyrazin-5-yl)oxy)methyl)pyrrolidin-2-one] was run?
Answer: 52 nM

Question: And the IC50 [2, 3]?
Answer: 418 nM

Question: What does the source list for `CNS(=O)(=O)N1CCOC(COc2nc(-c3ccc(C(C)(C)O)cc3)cc3nccnc23)C1` (stereo not shown) [Compound 262]?
Answer: IC50 [1]: 79 nM; IC50 [2, 3]: 269 nM

Question: `CC(C)(O)c1ccc(-c2cc3nccnc3c(OC[C@@H]3CN(S(N)(=O)=O)CCO3)n2)cc1` [Compound 263] was tested. Which IC50 [1] did it give?
Answer: 23 nM

Question: What about the IC50 [2, 3] of the same compound?
Answer: 400 nM

Question: How did the IC50 [1] turn out when `CNC(=O)N1CCO[C@H](COc2nc(-c3ccc(C(C)(C)O)cc3)cc3nccnc23)C1` [Compound 264] was run?
Answer: 38 nM

Question: And the IC50 [2, 3]?
Answer: 339 nM

Question: Which IC50 [1] does the source give for `CC(=O)N1CCO[C@H](COc2nc(-c3ccc(C(C)(C)O)cc3)cc3nccnc23)C1` [Compound 265] here?
Answer: 88 nM

Question: What about the IC50 [2, 3] of the same compound?
Answer: 166 nM

Question: `CC(C)(O)c1ccc(-c2cc3nccnc3c(OC[C@@H]3CN(C(N)=O)CCO3)n2)cc1` [Compound 266] was tested. Which IC50 [1] did it give?
Answer: 44 nM

Question: And the IC50 [2, 3]?
Answer: 1090 nM

Question: `CC(=O)N1CCO[C@H](COc2nc(-c3ccc(C(C)(C)CN)cc3)cc3nccnc23)C1` [Compound 267] was tested. Which IC50 [1] did it give?
Answer: 477 nM

Question: And the IC50 [2, 3]?
Answer: 1260 nM

Question: Which results are given for `COC(C)(C)c1ccc(-c2cc3nccnc3c(OC[C@@H]3CN(S(C)(=O)=O)CCO3)n2)cc1` [Compound 268]?
Answer: IC50 [1]: 18 nM; IC50 [2, 3]: 36 nM

Question: Which IC50 [1] does the source give for `COC(C)(C)c1ccc(-c2cc3nccnc3c(OC[C@@H]3CN(C(C)=O)CCO3)n2)cc1` [Compound 269] here?
Answer: 91 nM

Question: And the IC50 [2, 3]?
Answer: 88 nM

Question: For `CCC(O)(CC)c1ccc(-c2cc3nccnc3c(OC[C@@H]3CN(C(C)=O)CCO3)n2)cc1` [Compound 270], which IC50 [1] is on record?
Answer: 179 nM

Question: And the IC50 [2, 3]?
Answer: 185 nM

Question: `CC(C)(O)Cc1ccc(-c2cc3nccnc3c(OC[C@@H]3CN(S(C)(=O)=O)CCO3)n2)cc1` [Compound 273] was tested. Which IC50 [1] did it give?
Answer: 85 nM

Question: What about the IC50 [2, 3] of the same compound?
Answer: 176 nM

Question: `CS(=O)(=O)N1CCO[C@H](COc2nc(-c3ccc(C4(C#N)CC4)cc3)cc3nccnc23)C1` [Compound 274] was tested. Which IC50 [1] did it give?
Answer: 40 nM

Question: What about the IC50 [2, 3] of the same compound?
Answer: 59 nM

Question: Which IC50 [1] does the source give for `CCC(O)(CC)c1ccc(-c2cc3nccnc3c(OC[C@@H]3CN(S(C)(=O)=O)CCO3)n2)cc1` [Compound 279] here?
Answer: 35 nM

Question: What about the IC50 [2, 3] of the same compound?
Answer: 87 nM

Question: Which results are given for `CCC(O)(CC)c1ccc(-c2cc3nccnc3c(OC[C@@H]3CN(C(N)=O)CCO3)n2)cc1` [Compound 281]?
Answer: IC50 [1]: 65 nM; IC50 [2, 3]: 663 nM

Question: What does the source list for `CS(=O)(=O)N1CCO[C@H](COc2nc(-c3ccc(C4(C#N)CCC4)cc3)cc3nccnc23)C1` [Compound 282]?
Answer: IC50 [1]: 26 nM; IC50 [2, 3]: 92 nM

Question: `CCC(O)(CC)c1ccc(-c2cc3nccnc3c(OC[C@@H]3CN(S(N)(=O)=O)CCO3)n2)cc1` [Compound 283] was tested. Which IC50 [1] did it give?
Answer: 44 nM

Question: What about the IC50 [2, 3] of the same compound?
Answer: 248 nM

Question: What does the source list for `CC(C)(C)C(O)c1ccc(-c2cc3nccnc3c(OC[C@@H]3CN(S(C)(=O)=O)CCO3)n2)cc1` (stereo partly shown) [Compound 284]?
Answer: IC50 [1]: 97 nM; IC50 [2, 3]: 194 nM

Question: What does the source list for `CC(C)(CO)c1ccc(-c2cc3nccnc3c(OC[C@@H]3CN(S(C)(=O)=O)CCO3)n2)cc1` [Compound 288]?
Answer: IC50 [1]: 25 nM; IC50 [2, 4]: 48 nM; IC50 [2, 3]: 85 nM

Question: With `N#CC1(c2ccc(-c3cc4nccnc4c(OC[C@@H]4CN(C(N)=O)CCO4)n3)cc2)CCC1` [Compound 290] as the compound, how does the IC50 [1] read?
Answer: 50 nM

Question: What about the IC50 [2, 4] of the same compound?
Answer: 467 nM

Question: What about the IC50 [2, 3] of the same compound?
Answer: 374 nM

Question: With `COc1ccc(-c2cc3nccnc3c(OC[C@@H]3CN(S(N)(=O)=O)CCO3)n2)cc1OC` [Compound 292, (S)-2-(((7-(3,4-dimethoxyphenyl)pyrido[3,4-b]pyrazin-5-yl)oxy)methyl)morpholine-4-sulfonamide] as the compound, how does the IC50 [1] read?
Answer: 14 nM

Question: And the IC50 [2, 3]?
Answer: 232 nM

Question: For `N#CC1(c2ccc(-c3cc4nccnc4c(OC[C@@H]4CN(S(N)(=O)=O)CCO4)n3)cc2)CC1` [Compound 293], which IC50 [1] is on record?
Answer: 50 nM

Question: And the IC50 [2, 3]?
Answer: 241 nM

Question: How did the IC50 [1] turn out when `N#CC1(c2ccc(-c3cc4nccnc4c(OC[C@@H]4CN(S(N)(=O)=O)CCO4)n3)cc2)CCC1` [Compound 294] was run?
Answer: 51 nM

Question: And the IC50 [2, 4]?
Answer: 132 nM

Question: What about the IC50 [2, 3] of the same compound?
Answer: 218 nM

Question: For `CC(=O)N1CCO[C@H](COc2nc(-c3ccc4c(c3)COC4(C)C)cc3nccnc23)C1` [Compound 297], which IC50 [1] is on record?
Answer: 58 nM

Question: And the IC50 [2, 3]?
Answer: 88 nM

Question: `CC1(C)OCc2cc(-c3cc4nccnc4c(OC[C@@H]4CN(C(N)=O)CCO4)n3)ccc21` [Compound 298] was tested. Which IC50 [1] did it give?
Answer: 28 nM

Question: What about the IC50 [2, 3] of the same compound?
Answer: 191 nM

Question: For `CC1(C)OCc2cc(-c3cc4nccnc4c(OC[C@@H]4CN(S(C)(=O)=O)CCO4)n3)ccc21` [Compound 299], which IC50 [1] is on record?
Answer: 14 nM

Question: And the IC50 [2, 3]?
Answer: 47 nM

Question: Which results are given for `CC1(C)OCCc2cc(-c3cc4nccnc4c(OC[C@@H]4CN(C(N)=O)CCO4)n3)ccc21` [Compound 301]?
Answer: IC50 [1]: 24 nM; IC50 [2, 3]: 107 nM

Question: For `CC1(C)OCCc2cc(-c3cc4nccnc4c(OC[C@@H]4CN(S(C)(=O)=O)CCO4)n3)ccc21` [Compound 302], which IC50 [1] is on record?
Answer: 9 nM

Question: What about the IC50 [2, 3] of the same compound?
Answer: 30 nM

Question: Which results are given for `CS(=O)(=O)N1CCO[C@H](COc2nc(-c3ccc(C4(O)CCC4)cc3)cc3nccnc23)C1` [Compound 308]?
Answer: IC50 [1]: 35 nM; IC50 [2, 3]: 97 nM

Question: What does the source list for `NC(=O)N1CCO[C@H](COc2nc(-c3ccc(C4(O)CCC4)cc3)cc3nccnc23)C1` [Compound 311]?
Answer: IC50 [1]: 35 nM; IC50 [2, 3]: 620 nM

Question: `NS(=O)(=O)N1CCO[C@H](COc2nc(-c3ccc(C4(O)CCC4)cc3)cc3nccnc23)C1` [Compound 312] was tested. Which IC50 [1] did it give?
Answer: 69 nM

Question: What about the IC50 [2, 3] of the same compound?
Answer: 873 nM

Question: How did the IC50 [1] turn out when `CS(=O)(=O)N1CCO[C@H](COc2nc(-c3ccc(C4(O)CCOCC4)cc3)cc3nccnc23)C1` [Compound 314] was run?
Answer: 43 nM

Question: And the IC50 [2, 3]?
Answer: 117 nM

Question: How did the IC50 [1] turn out when `CN1CCOC(COc2nc(-c3ccc(C4CCN(S(C)(=O)=O)CC4)cc3)cc3nccnc23)C1=O` (stereo not shown) [Compound 315] was run?
Answer: 103 nM

Question: What about the IC50 [2, 3] of the same compound?
Answer: 123 nM

Question: With `CN1CCOC(COc2nc(-c3ccc(C(C)(C)O)cc3)cc3nccnc23)C1=O` (stereo not shown) [Compound 316] as the compound, how does the IC50 [1] read?
Answer: 115 nM

Question: What about the IC50 [2, 3] of the same compound?
Answer: 113 nM

Question: With `CC1(c2ccc(-c3cc4nccnc4c(OC[C@@H]4CN(S(C)(=O)=O)CCO4)n3)cc2)COC1` [Compound 317] as the compound, how does the IC50 [1] read?
Answer: 33 nM

Question: And the IC50 [2, 3]?
Answer: 94 nM

Question: Which results are given for `CC(C)(C(=O)O)c1ccc(-c2cc3nccnc3c(OC[C@@H]3CN(S(C)(=O)=O)CCO3)n2)cc1` [Compound 318]?
Answer: IC50 [1]: 17 nM; IC50 [2, 3]: 174 nM

Question: Which IC50 [1] does the source give for `CC(=O)N1CC(C)(c2ccc(-c3cc4nccnc4c(OC[C@@H]4CN(S(C)(=O)=O)CCO4)n3)cc2)C1` [Compound 321] here?
Answer: 14 nM

Question: And the IC50 [2, 3]?
Answer: 127 nM
